Test results reported in US20030175216A1, “Oral antimicrobial and anti-odor compositions” (Innoscent LTD., priority 2001, published 2003).

What was measured:
S. mutans = assay: Agar plate zone of growth inhibition; assay type: cell-based, Streptococcus mutans
Description: (§1) The higher alcohols were tested for antimicrobial activity against Gram positive bacteria (Streptococcus mutans), Gram negative bacteria (Pseudomonas spp., Escherichia coli, […]) and the yeast Candida albicans. […] Five microliters of the higher alcohol solutions were placed on the surface of a rich (Brain-heart infusion) agar plate immediately after seeding with a mono-specific bacterial or yeast culture. The plates were incubated for 24-48 hours, and, following further microbial proliferation, the diameters of the zones of growth inhibition were measured (results expressed in centimeters). In a further set of experiments, the effect of solvent type on the antimicrobial activity of the C9 alcohol was investigated. […] These solutions were tested for antimicrobial activity towards three microorganisms (M. lysodeikticus, S. mutans and Corynebacterium xerosis) using the same assay as described above. The relationship of the concentration of the C9 alcohol to its antimicrobial activity was also investigated. […] These solutions were tested in the assay described above for their ability to inhibit the growth of the bacteria M. lysodeikticus and S. mutans.

[1] = system: bacteria and yeast tested; assay: Agar plate growth inhibition, summary statements over the test microorganisms; assay type: cell-based; details: for antimicrobial activity (summary): C. xerosis
Description: as §1

E. coli = assay: Agar plate zone of growth inhibition; assay type: cell-based, Escherichia coli
Description: (§2) The higher alcohols were tested for antimicrobial activity against Gram positive bacteria (Streptococcus mutans), Gram negative bacteria (Pseudomonas spp., Escherichia coli, […]) and the yeast Candida albicans. […] Five microliters of the higher alcohol solutions were placed on the surface of a rich (Brain-heart infusion) agar plate immediately after seeding with a mono-specific bacterial or yeast culture. The plates were incubated for 24-48 hours, and, following further microbial proliferation, the diameters of the zones of growth inhibition were measured (results expressed in centimeters).

M. lysodeikticus = assay: Agar plate zone of growth inhibition; assay type: cell-based
Description: Five microliters of the higher alcohol solutions were placed on the surface of a rich (Brain-heart infusion) agar plate immediately after seeding with a mono-specific bacterial or yeast culture. The plates were incubated for 24-48 hours, and, following further microbial proliferation, the diameters of the zones of growth inhibition were measured (results expressed in centimeters). In a further set of experiments, the effect of solvent type on the antimicrobial activity of the C9 alcohol was investigated. […] These solutions were tested for antimicrobial activity towards three microorganisms (M. lysodeikticus, S. mutans and Corynebacterium xerosis) using the same assay as described above. The relationship of the concentration of the C9 alcohol to its antimicrobial activity was also investigated. […] These solutions were tested in the assay described above for their ability to inhibit the growth of the bacteria M. lysodeikticus and S. mutans.

C. albicans = assay: Agar plate zone of growth inhibition; assay type: cell-based, Candida albicans
Description: as §2

C. xerosis = assay: Agar plate zone of growth inhibition; assay type: cell-based, Corynebacterium xerosis
Description: Five microliters of the higher alcohol solutions were placed on the surface of a rich (Brain-heart infusion) agar plate immediately after seeding with a mono-specific bacterial or yeast culture. The plates were incubated for 24-48 hours, and, following further microbial proliferation, the diameters of the zones of growth inhibition were measured (results expressed in centimeters). In a further set of experiments, the effect of solvent type on the antimicrobial activity of the C9 alcohol was investigated. […] These solutions were tested for antimicrobial activity towards three microorganisms (M. lysodeikticus, S. mutans and Corynebacterium xerosis) using the same assay as described above.

[2] = system: odor formation in freshly-taken morning saliva; assay: Inhibition of in vitro odor formation by higher alcohols (saliva in decarboxylase medium); assay type: cell-based
Description: A series of test tubes were prepared, each containing 5 ml of decarboxylase medium (0.5% peptone, 0.3% yeast extract, 0.1% dextrose and 0.02% bromocresol purple). […] The tubes were incubated at 37° C. for three days. Following incubation, the odor was determined by a panel of odor judges, using the following semi-quantitative scale 0=no odor 1=very slight odor […] The higher alcohols tested were alkanols of chain length C8, C9, C10, C11, C12, C14, C16 and C18.

E. faecalis = assay: Agar plate zone of growth inhibition; assay type: cell-based
Description: as §2

Pseudomonas aeruginosa = assay: Agar plate zone of growth inhibition; assay type: cell-based
Description: as §2

[3] = 0.3% C9 in 70% ethanol, concentration series
[4] = 0.5% C9 in 70% ethanol, concentration series
[5] = 1% C9 in 70% ethanol, concentration series
[6] = 1% in 70% ethanol, solvent study
[7] = 2% C9 in 70% ethanol, concentration series
[8] = 3% C9 in 70% ethanol, concentration series
[9] = 4% C9 in 70% ethanol, concentration series
[10] = 5% C9 in 70% ethanol, concentration series
[11] = 5 μl of 0.1% solution in 70% ethanol
[12] = 5 μl of 1% solution (C8-C12 in 70% ethanol, C14-C18 in 100% ethanol)
[13] = 10% C9 in 70% ethanol, concentration series
[14] = 10 μl of 1% solution, scale 0-5
[15] = 20 μl of 1% solution, scale 0-5
[16] = 30 μl of 1% solution, scale 0-5
[17] = 40 μl of 1% solution, scale 0-5

CCCCCCCCCO [C9, 1-nonanol]
highly active: antimicrobial activity (summary) ([1]; 1% C9 solutions made in the lower alcohols, M. lysodeikticus, S. mutans)
inhibition of odor formation: effect on in vitro odor formation (summary) ([2]; 10-50 μl of 1% solution)
1.0 centimeters: diameter of zone of growth inhibition, S. mutans (S. mutans; [9]) | diameter of zone of growth inhibition, S. mutans (S. mutans; [13]) | diameter of zone of growth inhibition, E. coli (E. coli; [11]) | diameter of zone of growth inhibition, E. coli (E. coli; [12]) | diameter of zone of growth inhibition, C. xerosis (C. xerosis; 1% C9 in 2-propanol)
widest spectrum of activity: spectrum of activity ([1]; among the higher alcohols tested)
0.4 centimeters: diameter of zone of growth inhibition, C. xerosis (C. xerosis; 1% C9 in 100% methanol)
1.3 centimeters: diameter of zone of growth inhibition, S. mutans (S. mutans; 1% C9 in 2-propanol) | diameter of zone of growth inhibition, M. lysodeikticus (M. lysodeikticus; 1% C9 in 2-propanol)
inhibit microbial growth: effect on microbial growth (summary) ([1]; Table VI microorganisms)
0.9 centimeters: diameter of zone of growth inhibition, S. mutans (S. mutans; [4]) | diameter of zone of growth inhibition, S. mutans (S. mutans; 1% C9 in 100% methanol) | diameter of zone of growth inhibition, S. mutans (S. mutans; [8]) | diameter of zone of growth inhibition, S. mutans (S. mutans; [10]) | diameter of zone of growth inhibition, S. mutans (S. mutans; [11]) | diameter of zone of growth inhibition, S. mutans (S. mutans; [12]) | diameter of zone of growth inhibition, M. lysodeikticus (M. lysodeikticus; 0.2% C9 in 70% ethanol, concentration series) | diameter of zone of growth inhibition, M. lysodeikticus (M. lysodeikticus; 1% C9 in 100% methanol) | diameter of zone of growth inhibition, M. lysodeikticus (M. lysodeikticus; [7]) | diameter of zone of growth inhibition, M. lysodeikticus (M. lysodeikticus; [8]) | diameter of zone of growth inhibition, M. lysodeikticus (M. lysodeikticus; [9]) | diameter of zone of growth inhibition, M. lysodeikticus (M. lysodeikticus; [10]) | diameter of zone of growth inhibition, M. lysodeikticus (M. lysodeikticus; [13]) | diameter of zone of growth inhibition, C. albicans (C. albicans; [12]) | diameter of zone of growth inhibition, C. xerosis (C. xerosis; [6]) | diameter of zone of growth inhibition, E. faecalis (E. faecalis; [12])
almost devoid of activity: antimicrobial activity (summary) ([1]; 1% C9 dissolved in water, M. lysodeikticus, S. mutans)
0.8 centimeters: diameter of zone of growth inhibition, S. mutans (S. mutans; [3]) | diameter of zone of growth inhibition, S. mutans (S. mutans; [6]) | diameter of zone of growth inhibition, S. mutans (S. mutans; [7]) | diameter of zone of growth inhibition, C. albicans (C. albicans; [11])
4: Odor Score (Judge 1) [2, 14] | Odor Score (Judge 2) [2, 14] | Odor Score (Judge 1) [2, 15] | Odor Score (Judge 2) [2, 15]
0.6 centimeters: diameter of zone of growth inhibition, Pseudomonas aeruginosa (Pseudomonas aeruginosa; [12])
≥ 3%: C9 alcohol concentration giving the greatest antibacterial activity ([1]; in 70% ethanol, range 0-10%, M. lysodeikticus, S. mutans)
0.7 centimeters: diameter of zone of growth inhibition, S. mutans (S. mutans; [5]) | diameter of zone of growth inhibition, M. lysodeikticus (M. lysodeikticus; 0.1% C9 in 70% ethanol, concentration series) | diameter of zone of growth inhibition, M. lysodeikticus (M. lysodeikticus; [3]) | diameter of zone of growth inhibition, M. lysodeikticus (M. lysodeikticus; [4]) | diameter of zone of growth inhibition, M. lysodeikticus (M. lysodeikticus; [5]) | diameter of zone of growth inhibition, M. lysodeikticus (M. lysodeikticus; [6]) | diameter of zone of growth inhibition, E. faecalis (E. faecalis; [11]) | diameter of zone of growth inhibition, Pseudomonas aeruginosa (Pseudomonas aeruginosa; 5 μl of 0.05% solution in 70% ethanol) | diameter of zone of growth inhibition, Pseudomonas aeruginosa (Pseudomonas aeruginosa; [11])
more than 75 % of the maximal effect: share of the maximal antibacterial effect ([1]; C9 0.1-0.2% in 70% ethanol, M. lysodeikticus, S. mutans)
0: Odor Score (Judge 1) [2, 16] | Odor Score (Judge 2) [2, 16] | Odor Score (Judge 1) [2, 17] | Odor Score (Judge 2) [2, 17] | Odor Score (Judge 1) ([2]; 50 μl of 1% solution (C8-C12 in 70% ethanol, C14-C18 in 100% ethanol) in 5 ml medium + 200 μl saliva, 3 days 37° C., scale 0 no odor to 5 extremely foul) | Odor Score (Judge 2) ([2]; 50 μl of 1% solution, scale 0-5)
